Source: US20250074891A1 (Anaxis Pharma Pty Ltd., priority 2021, published 2025)

Columns and labels:
Conditions in all cases: Table 35
[1] = target: RIP1 (Homo sapiens (Human), UniProt Q13546); assay: KINOMEscan binding assay, RIP1
[2] = target: MLKL (full length) (Homo sapiens (Human), UniProt Q8NB16); assay: KINOMEscan binding assay, MLKL (full length)
Protocol: (§1) Kinase assays. For most assays, kinase-tagged T7 phage strains were grown in parallel in 24-well blocks in an E. coli host derived from the BL21 strain. E. coli were grown to log-phase and infected with T7 phage from a frozen stock (multiplicity of infection=0.4) and incubated with shaking at 32° C. until lysis (90-150 minutes).
(§2) The Hill Slope was set to −1.

[3] = target: RIP3 (Homo sapiens (Human), UniProt Q9Y572); assay: KINOMEscan binding assay, RIP3
Protocol: as §1, §2

MLKL (full length), sequence (Q8NB16 whole entry): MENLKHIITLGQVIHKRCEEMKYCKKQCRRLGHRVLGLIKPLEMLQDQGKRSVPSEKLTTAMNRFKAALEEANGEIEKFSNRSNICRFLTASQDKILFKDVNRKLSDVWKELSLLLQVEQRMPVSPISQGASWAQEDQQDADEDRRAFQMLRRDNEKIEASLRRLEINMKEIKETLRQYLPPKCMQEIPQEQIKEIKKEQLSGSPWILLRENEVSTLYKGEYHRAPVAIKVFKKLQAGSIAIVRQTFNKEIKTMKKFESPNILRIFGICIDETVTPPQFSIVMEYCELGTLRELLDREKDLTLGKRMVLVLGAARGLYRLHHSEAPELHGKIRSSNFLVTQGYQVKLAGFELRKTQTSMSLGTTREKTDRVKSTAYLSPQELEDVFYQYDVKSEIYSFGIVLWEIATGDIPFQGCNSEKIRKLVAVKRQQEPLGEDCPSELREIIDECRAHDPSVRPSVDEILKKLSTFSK
RIP1, sequence (Q13546 whole entry): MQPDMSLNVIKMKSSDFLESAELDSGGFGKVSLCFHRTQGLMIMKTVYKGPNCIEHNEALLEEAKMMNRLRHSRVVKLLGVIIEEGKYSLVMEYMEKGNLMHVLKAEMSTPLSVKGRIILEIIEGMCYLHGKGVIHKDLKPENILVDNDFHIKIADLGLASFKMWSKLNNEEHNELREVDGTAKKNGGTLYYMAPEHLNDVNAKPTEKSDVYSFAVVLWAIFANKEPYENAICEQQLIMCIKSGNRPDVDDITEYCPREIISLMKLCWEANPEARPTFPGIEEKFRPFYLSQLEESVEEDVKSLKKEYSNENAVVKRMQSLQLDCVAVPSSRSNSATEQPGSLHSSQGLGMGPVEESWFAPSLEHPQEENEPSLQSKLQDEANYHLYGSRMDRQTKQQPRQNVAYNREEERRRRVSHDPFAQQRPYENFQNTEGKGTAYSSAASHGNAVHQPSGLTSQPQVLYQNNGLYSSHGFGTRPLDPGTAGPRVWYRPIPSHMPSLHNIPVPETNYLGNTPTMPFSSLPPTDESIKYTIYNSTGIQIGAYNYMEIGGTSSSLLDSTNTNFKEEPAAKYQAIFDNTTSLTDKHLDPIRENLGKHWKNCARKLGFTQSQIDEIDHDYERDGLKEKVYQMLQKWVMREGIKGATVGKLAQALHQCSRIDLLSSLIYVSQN
RIP3, sequence (Q9Y572 whole entry): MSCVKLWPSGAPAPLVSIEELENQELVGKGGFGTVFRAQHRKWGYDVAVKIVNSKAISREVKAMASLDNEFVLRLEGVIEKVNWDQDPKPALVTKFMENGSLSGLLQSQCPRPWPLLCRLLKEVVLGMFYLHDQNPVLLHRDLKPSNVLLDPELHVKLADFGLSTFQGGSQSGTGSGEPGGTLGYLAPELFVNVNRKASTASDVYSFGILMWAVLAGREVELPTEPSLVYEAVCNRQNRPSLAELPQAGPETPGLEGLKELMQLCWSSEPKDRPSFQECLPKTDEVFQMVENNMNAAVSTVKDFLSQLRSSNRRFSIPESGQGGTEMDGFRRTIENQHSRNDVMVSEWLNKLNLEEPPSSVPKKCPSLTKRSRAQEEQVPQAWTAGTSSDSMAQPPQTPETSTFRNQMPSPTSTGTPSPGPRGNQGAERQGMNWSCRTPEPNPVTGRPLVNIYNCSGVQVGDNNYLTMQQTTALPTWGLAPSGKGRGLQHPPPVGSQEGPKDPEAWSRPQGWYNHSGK

SMILES	Kd [1] [µM]	Kd [2] [µM]	Kd [3] [µM]
CCS(=O)(=O)Nc1ccc(-c2n[nH]c(Nc3cnccn3)c2C(N)=O)cc1OCC1CCCC1 [Compound 40, 3-(3-(cyclopentyl-methoxy)-4-(ethylsulfonamido)phenyl)-5-(pyrazin-2-ylamino)-1H-pyrazole-4-carboxamide]	> 30	< 0.01	> 30
COCCOc1cc(Nc2[nH]nc(-c3ccc(NS(=O)(=O)N(C)C)cc3)c2C(N)=O)ccn1 [Compound 221, 3-(4-((N,N-dimethylsulfamoyl)amino)phenyl)-5-((2-(2-methoxyethoxy)pyridin-4-yl)amino)-1H-pyrazole-4-carboxamide]	> 30	< 0.01	> 30
CCS(=O)(=O)Nc1ccc(-c2n[nH]c(Nc3ccc(C(F)(F)F)nc3)c2C(N)=O)cc1OCc1ccc(F)cc1 [Compound 194]	> 30	< 0.01	> 30
NC(=O)c1c(-c2ccc(NS(=O)(=O)CC(F)(F)F)c(OCc3ccc(F)cc3)c2)n[nH]c1Nc1cccc(C(F)F)n1 [Compound 173, 5-((6-(difluoromethyl)pyridine-2-yl)amino)-3-(3-((4-fluorobenzyl)oxy)-4-((2,2,2-trifluoroethyl)sulfonamido)phenyl)-1H-pyrazole-4-carboxamide]	> 30	< 0.01	> 30
CCS(=O)(=O)Nc1ccc(-c2n[nH]c(Nc3cnccn3)c2C(N)=O)cc1Oc1ccc(Cl)cc1 [Compound 185, 3-(3-(4-chlorophenoxy)-4-(ethylsulfonamido)phenyl)-5-(pyrazin-2-ylamino)-1H-pyrazole-4-carboxamide]	> 30	< 0.01	> 30
CCS(=O)(=O)Nc1ccc(-c2n[nH]c(Nc3cnccn3)c2C(N)=O)cc1OC1(c2ccccc2)CC1 [Compound 152, 3-(4-(ethylsulfonamido)-3-(1-phenylcyclopropoxy)phenyl)-5-(pyrazin-2-ylamino)-1H-pyrazole-4-carboxamide]	> 30	< 0.01	> 30
COc1cc(Nc2[nH]nc(-c3ccc(NS(=O)(=O)C(F)F)c(O[C@@H](C)c4ccc(F)cc4)c3)c2C(N)=O)nn1C [Compound 294, (S)-3-(4-((difluoromethyl)sulfonamido)-3-(1-(4-fluorophenyl)ethoxy)phenyl)-5-((5-methoxy-1-methyl-1H-pyrazol-3-yl)amino)-1H-pyrazole-4-carboxamide]	> 30	< 0.01	> 30
Cc1cnc(Nc2[nH]nc(-c3ccc(NS(=O)(=O)C(F)F)c(OC4(c5ccc(F)cc5)CC4)c3)c2C(N)=O)cn1 [Compound 290, 3-(4-((difluoromethyl)sulfonamido)-3-(1-(4-fluorophenyl)cyclopropoxy)phenyl)-5-((5-methylpyrazin-2-yl)amino)-1H-pyrazole-4-carboxamide]	> 30	< 0.01	> 30
Cc1cnc(Nc2[nH]nc(-c3ccc(NS(=O)(=O)CC(F)(F)F)c(OCc4ccc(Cl)cc4)c3)c2C(N)=O)cn1 [Compound 162, 3-(3-((4-chlorobenzyl)oxy)-4-((2,2,2-trifluoroethyl)sulfonamido)phenyl)-5-((5-methylpyrazin-2-yl)amino)-1H-pyrazole-4-carboxamide]	> 30	< 0.01	> 30
COc1cnc(Nc2[nH]nc(-c3ccc(NS(=O)(=O)CC(F)(F)F)c(OCc4ccc(Cl)cc4)c3)c2C(N)=O)cn1 [Compound 157, 3-(3-((4-chlorobenzyl)oxy)-4-((2,2,2-trifluoroethyl)sulfonamido)phenyl)-5-((5-methoxypyrazin-2-yl)amino)-1H-pyrazole-4-carboxamide]	> 30	< 0.01	> 30
CCS(=O)(=O)Nc1ccc(-c2n[nH]c(Nc3cnc4ccccc4n3)c2C(N)=O)cc1 [Compound 67, 3-(4-(ethylsulfonamido)phenyl)-5-(quinoxalin-2-ylamino)-1H-pyrazole-4-carboxamide]	> 30	< 0.01	> 30
NC(=O)c1c(-c2ccc(NS(=O)(=O)CC(F)(F)F)c(OCc3ccc(Cl)cc3)c2)n[nH]c1Nc1cnc(C(F)(F)F)cn1 [Compound 234, 3-{3-[(4-chlorophenyl)methoxy]-4-(2,2,2-trifluoroethanesulfonamido)phenyl}-5-{[5-(trifluoromethyl)pyrazin-2-yl]amino}-1H-pyrazole-4-carboxamide]	> 30	< 0.01	> 30
CCS(=O)(=O)Nc1ccc(-c2n[nH]c(Nc3cnc(OC)cn3)c2C(N)=O)cc1 [Compound 90, 3-(4-(ethylsulfonamido)phenyl)-5-((5-methoxypyrazin-2-yl)amino)-1H-pyrazole-4-carboxamide]	> 30	< 0.01	> 30
CCS(=O)(=O)Nc1ccc(-c2n[nH]c(Nc3cnccn3)c2C(N)=O)cc1OCc1ccccc1 [Compound 25, 3-(3-(benzyloxy)-4-(ethylsulfonamido)phenyl)-5-(pyrazin-2-ylamino)-1H-pyrazole-4-carboxamide]	> 30	< 0.01	> 30
NC(=O)c1c(-c2ccc(NS(=O)(=O)CC(F)F)c(OCc3ccc(F)cc3)c2)n[nH]c1Nc1cccc(C(F)(F)F)n1 [Compound 178, 3-(4-((2,2-difluoroethyl)sulfonamido)-3-((4-fluorobenzyl)oxy)phenyl)-5-((6-(trifluoromethyl)pyridine-2-yl)amino)-1H-pyrazole-4-carboxamide]	> 30	< 0.01	> 30
NC(=O)c1c(-c2ccc(NS(=O)(=O)CCC(F)F)cc2)n[nH]c1Nc1cnccn1 [Compound 23, 3-(4-((3,3-difluoropropyl)sulfonamido)phenyl)-5-(pyrazin-2-ylamino)-1H-pyrazole-4-carboxamide]	> 30	< 0.01	> 30
CCS(=O)(=O)Nc1ccc(-c2n[nH]c(Nc3cnc(C)cn3)c2C(N)=O)cc1 [Compound 101, 3-(4-(ethylsulfonamido)phenyl)-5-((5-methylpyrazin-2-yl)amino)-1H-pyrazole-4-carboxamide]	> 30	< 0.01	> 30
NC(=O)c1c(-c2ccc(NS(=O)(=O)CC(F)(F)F)c(Oc3ccc(F)cc3)c2)n[nH]c1Nc1cccc(C(F)(F)F)n1 [Compound 148, 3-(3-(4-fluorophenoxy)-4-((2,2,2-trifluoroethyl)sulfonamido)phenyl)-5-((6-(trifluoromethyl)pyridine-2-yl)amino)-1H-pyrazole-4-carboxamide]	> 30	< 0.01	> 30
CCS(=O)(=O)Nc1ccc(-c2n[nH]c(Nc3cnccn3)c2C(N)=O)cc1OCCc1ccc(F)cc1 [Compound 24]	> 30	< 0.01	> 30
CCc1cc(Nc2[nH]nc(-c3ccc(NS(=O)(=O)C(F)F)c(O[C@@H](C)c4ccc(F)cc4)c3)c2C(N)=O)no1 [Compound 274, (S)-3-(4-((difluoromethyl)sulfonamido)-3-(1-(4-fluorophenyl)ethoxy)phenyl)-5-((5-ethylisoxazol-3-yl)amino)-1H-pyrazole-4-carboxamide]	> 30	< 0.01	> 30
CCS(=O)(=O)Nc1ccc(-c2n[nH]c(Nc3cncc(OC)n3)c2C(N)=O)cc1 [Compound 99, 3-(4-(ethylsulfonamido)phenyl)-5-((6-methoxypyrazin-2-yl)amino)-1H-pyrazole-4-carboxamide]	> 30	< 0.01	> 30
NC(=O)c1c(-c2ccc(NS(=O)(=O)C(F)F)c(OC(c3ccc(F)cc3)C3CCC3)c2)n[nH]c1Nc1cnccn1 (stereo not drawn) [Compound 236, 3-{3-[cyclobutyl(4-fluorophenyl)methoxy]-4-(difluoromethanesulfonamido)phenyl}-5-[(pyrazin-2-yl)amino]-1H-pyrazole-4-carboxamide]	> 30	< 0.01	> 30
NC(=O)c1c(-c2ccc(NS(=O)(=O)CC(F)(F)F)c(OCc3ccc(Cl)cc3)c2)n[nH]c1Nc1ccccn1 [Compound 269, 3-{3-[(4-chlorophenyl)methoxy]-4-(2,2,2-trifluoroethanesulfonamido)phenyl}-5-[(pyridin-2-yl)amino]-1H-pyrazole-4-carboxamide]	> 30	< 0.01	> 30
CCS(=O)(=O)Nc1ccc(-c2n[nH]c(Nc3cnccn3)c2C(N)=O)cc1OCc1ccc(Cl)cc1 [Compound 42, 3-(3-((4-chlorobenzyl)oxy)-4-(ethylsulfonamido)phenyl)-5-(pyrazin-2-ylamino)-1H-pyrazole-4-carboxamide]	> 30	< 0.01	> 30
NC(=O)c1c(-c2ccc(NS(=O)(=O)CC(F)(F)F)c(OCc3ccc(F)cc3)c2)n[nH]c1Nc1ccc(C(F)(F)F)nc1 [Compound 176, 3-(3-((4-fluorobenzyl)oxy)-4-((2,2,2-trifluoroethyl)sulfonamido)phenyl)-5-((6-(trifluoromethyl)pyridine-3-yl)amino)-1H-pyrazole-4-carboxamide]	> 30	< 0.01	> 30
C[C@H](Oc1cc(-c2n[nH]c(Nc3cc(C(F)(F)F)n(C)n3)c2C(N)=O)ccc1NS(=O)(=O)C(F)F)c1ccc(F)cc1 [Compound 277, (S)-3-(4-((difluoromethyl)sulfonamido)-3-(1-(4-fluorophenyl)ethoxy)phenyl)-5-((1-methyl-5-(trifluoromethyl)-1H-pyrazol-3-yl)amino)-1H-pyrazole-4-carboxamide]	> 30	< 0.01	> 30
NC(=O)c1c(-c2ccc(NS(=O)(=O)Cc3ccc(Cl)cc3)cc2)n[nH]c1Nc1cnccn1 [Compound 70, 3-(4-(((4-chlorophenyl)methyl)sulfonamido)phenyl)-5-(pyrazin-2-ylamino)-1H-pyrazole-4-carboxamide]	> 30	< 0.01	> 30
